# From ChEMBL document CHEMBL5463729, “Data for DCP probe BAY 1753011” (2023)
# Activity calls are given as the source filed them. The calls are words filed in the database; no cut-off is given here.
# Assays:
# [1] = biological target: PI3-kinase p110-delta/p85-alpha (Homo sapiens) (UniProt P27986+O00329); assay: Inhibition of PI3 Kinase (p110d/p85a)(h) at 10.0 µM in the Eurofins Kinase panel; type: protein-complex assay; settings: Compound concentration 10.0 uM
# [2] = biological target: Tyrosine-protein kinase receptor UFO (Homo sapiens) (UniProt P30530); assay: Inhibition of Axl(h) at 10.0 µM in the Eurofins Kinase panel; settings: Compound concentration 10.0 uM
# Chain of Tyrosine-protein kinase receptor UFO (Homo sapiens) (P30530 whole entry): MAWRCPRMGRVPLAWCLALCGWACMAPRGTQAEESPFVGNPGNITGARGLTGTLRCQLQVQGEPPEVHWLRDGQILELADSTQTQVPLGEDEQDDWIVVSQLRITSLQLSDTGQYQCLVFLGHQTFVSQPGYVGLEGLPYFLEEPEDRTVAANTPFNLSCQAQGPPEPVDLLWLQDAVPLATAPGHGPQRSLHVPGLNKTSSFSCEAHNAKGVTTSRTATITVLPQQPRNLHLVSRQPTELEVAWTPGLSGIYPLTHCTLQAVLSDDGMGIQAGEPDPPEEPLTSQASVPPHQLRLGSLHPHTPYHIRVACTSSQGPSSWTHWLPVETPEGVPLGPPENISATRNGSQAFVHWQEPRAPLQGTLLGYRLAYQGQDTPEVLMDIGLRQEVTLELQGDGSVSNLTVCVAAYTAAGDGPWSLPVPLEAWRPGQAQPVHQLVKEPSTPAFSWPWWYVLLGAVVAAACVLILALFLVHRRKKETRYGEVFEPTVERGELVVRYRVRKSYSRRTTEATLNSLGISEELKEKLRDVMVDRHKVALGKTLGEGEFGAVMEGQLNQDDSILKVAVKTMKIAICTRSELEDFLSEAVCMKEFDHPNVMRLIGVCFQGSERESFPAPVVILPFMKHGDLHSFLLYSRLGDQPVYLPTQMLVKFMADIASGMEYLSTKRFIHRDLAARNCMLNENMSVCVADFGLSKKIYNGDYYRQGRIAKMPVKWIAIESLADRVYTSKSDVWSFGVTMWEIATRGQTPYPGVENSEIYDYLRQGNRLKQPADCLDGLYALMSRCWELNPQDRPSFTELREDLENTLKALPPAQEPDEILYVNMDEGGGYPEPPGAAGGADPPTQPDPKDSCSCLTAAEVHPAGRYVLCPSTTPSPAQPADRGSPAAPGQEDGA
# [3] = biological target: MAP kinase-activated protein kinase 5 (Homo sapiens) (UniProt Q8IW41); assay: Inhibition of PRAK(h) at 10.0 µM in the Eurofins Kinase panel; settings: Compound concentration 10.0 uM
# Chain of MAP kinase-activated protein kinase 5 (Homo sapiens) (Q8IW41 whole entry): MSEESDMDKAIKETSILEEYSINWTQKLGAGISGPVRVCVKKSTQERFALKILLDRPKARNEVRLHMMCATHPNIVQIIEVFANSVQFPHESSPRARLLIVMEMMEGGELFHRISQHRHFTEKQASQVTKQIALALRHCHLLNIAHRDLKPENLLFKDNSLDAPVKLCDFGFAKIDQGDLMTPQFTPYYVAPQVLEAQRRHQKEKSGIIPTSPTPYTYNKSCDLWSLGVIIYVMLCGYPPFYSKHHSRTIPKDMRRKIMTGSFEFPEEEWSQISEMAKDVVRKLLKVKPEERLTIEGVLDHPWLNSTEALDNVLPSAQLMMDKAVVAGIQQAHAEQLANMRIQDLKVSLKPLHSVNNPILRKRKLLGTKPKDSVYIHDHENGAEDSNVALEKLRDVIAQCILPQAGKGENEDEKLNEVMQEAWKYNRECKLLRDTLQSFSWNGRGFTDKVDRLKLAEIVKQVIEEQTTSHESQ
# [4] = biological target: Protein kinase C beta type (Homo sapiens) (UniProt P05771); assay: Inhibition of PKCbetaII(h) at 10.0 µM in the Eurofins Kinase panel; settings: Compound concentration 10.0 uM
# Chain of Protein kinase C beta type (Homo sapiens) (P05771 2-671 limits assumed): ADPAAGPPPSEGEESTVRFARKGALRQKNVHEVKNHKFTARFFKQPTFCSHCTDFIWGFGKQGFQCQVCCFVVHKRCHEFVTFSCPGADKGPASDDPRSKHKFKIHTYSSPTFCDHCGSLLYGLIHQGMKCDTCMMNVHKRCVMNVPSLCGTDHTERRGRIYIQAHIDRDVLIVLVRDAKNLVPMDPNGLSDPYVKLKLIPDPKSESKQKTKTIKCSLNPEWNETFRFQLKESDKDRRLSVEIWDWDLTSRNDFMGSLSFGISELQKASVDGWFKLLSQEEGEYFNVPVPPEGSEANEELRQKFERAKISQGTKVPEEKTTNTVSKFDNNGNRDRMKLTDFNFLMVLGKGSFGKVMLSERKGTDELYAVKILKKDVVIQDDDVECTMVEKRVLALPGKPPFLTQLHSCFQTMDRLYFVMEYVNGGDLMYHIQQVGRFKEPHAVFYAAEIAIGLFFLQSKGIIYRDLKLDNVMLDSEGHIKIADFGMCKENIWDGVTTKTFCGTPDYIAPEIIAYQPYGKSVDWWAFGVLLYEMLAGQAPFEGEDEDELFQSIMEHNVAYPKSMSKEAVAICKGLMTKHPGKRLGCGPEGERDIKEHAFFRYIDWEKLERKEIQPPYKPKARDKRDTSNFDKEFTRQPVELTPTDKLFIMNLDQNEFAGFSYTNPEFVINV
# [5] = biological target: 5-hydroxytryptamine receptor 2C (Homo sapiens) (UniProt P28335); settings: Compound concentration 10.0 uM
# Chain of 5-hydroxytryptamine receptor 2C (Homo sapiens) (P28335 whole entry): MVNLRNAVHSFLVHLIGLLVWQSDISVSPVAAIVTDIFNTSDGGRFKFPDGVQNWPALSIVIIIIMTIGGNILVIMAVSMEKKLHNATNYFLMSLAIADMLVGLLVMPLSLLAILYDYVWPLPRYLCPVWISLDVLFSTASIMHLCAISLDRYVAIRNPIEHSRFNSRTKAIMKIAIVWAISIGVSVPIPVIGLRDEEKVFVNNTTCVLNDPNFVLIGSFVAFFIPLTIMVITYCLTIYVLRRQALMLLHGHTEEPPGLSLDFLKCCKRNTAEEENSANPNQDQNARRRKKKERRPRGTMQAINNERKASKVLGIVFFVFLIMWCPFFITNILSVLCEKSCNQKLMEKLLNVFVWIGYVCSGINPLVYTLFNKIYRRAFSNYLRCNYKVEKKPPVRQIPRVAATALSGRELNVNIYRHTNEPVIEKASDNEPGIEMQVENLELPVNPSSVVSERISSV
# [6] = biological target: T1, Muscarinic acetylcholine receptor M1 (Homo sapiens) (UniProt P11229); settings: Compound concentration 10.0 uM
# T1 sequence (whole entry): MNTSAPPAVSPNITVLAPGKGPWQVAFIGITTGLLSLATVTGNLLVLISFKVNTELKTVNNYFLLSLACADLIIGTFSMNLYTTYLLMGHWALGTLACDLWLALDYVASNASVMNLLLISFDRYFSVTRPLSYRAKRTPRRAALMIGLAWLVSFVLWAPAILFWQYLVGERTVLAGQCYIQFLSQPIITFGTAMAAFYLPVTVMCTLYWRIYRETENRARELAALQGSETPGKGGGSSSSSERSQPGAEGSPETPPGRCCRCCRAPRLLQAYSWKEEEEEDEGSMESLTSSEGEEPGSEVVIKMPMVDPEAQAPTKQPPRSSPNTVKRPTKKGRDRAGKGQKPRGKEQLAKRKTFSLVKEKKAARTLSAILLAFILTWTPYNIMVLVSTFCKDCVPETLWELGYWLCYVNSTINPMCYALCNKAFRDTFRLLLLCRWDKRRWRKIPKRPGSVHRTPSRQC
# [7] = biological target: Ephrin type-B receptor 4 (Homo sapiens) (UniProt P54760); assay: Inhibition of EphB4(h) at 10.0 µM in the Eurofins Kinase panel; settings: Compound concentration 10.0 uM
# [8] = biological target: Tyrosine-protein kinase Lck (Homo sapiens) (UniProt P06239); assay: Inhibition of Lck(h) at 10.0 µM in the Eurofins Kinase panel; settings: Compound concentration 10.0 uM
# [9] = biological target: Vascular endothelial growth factor receptor 2 (Homo sapiens) (UniProt P35968); assay: Inhibition of KDR(h) at 10.0 µM in the Eurofins Kinase panel; settings: Compound concentration 10.0 uM
# Chain of Vascular endothelial growth factor receptor 2 (Homo sapiens) (P35968 whole entry): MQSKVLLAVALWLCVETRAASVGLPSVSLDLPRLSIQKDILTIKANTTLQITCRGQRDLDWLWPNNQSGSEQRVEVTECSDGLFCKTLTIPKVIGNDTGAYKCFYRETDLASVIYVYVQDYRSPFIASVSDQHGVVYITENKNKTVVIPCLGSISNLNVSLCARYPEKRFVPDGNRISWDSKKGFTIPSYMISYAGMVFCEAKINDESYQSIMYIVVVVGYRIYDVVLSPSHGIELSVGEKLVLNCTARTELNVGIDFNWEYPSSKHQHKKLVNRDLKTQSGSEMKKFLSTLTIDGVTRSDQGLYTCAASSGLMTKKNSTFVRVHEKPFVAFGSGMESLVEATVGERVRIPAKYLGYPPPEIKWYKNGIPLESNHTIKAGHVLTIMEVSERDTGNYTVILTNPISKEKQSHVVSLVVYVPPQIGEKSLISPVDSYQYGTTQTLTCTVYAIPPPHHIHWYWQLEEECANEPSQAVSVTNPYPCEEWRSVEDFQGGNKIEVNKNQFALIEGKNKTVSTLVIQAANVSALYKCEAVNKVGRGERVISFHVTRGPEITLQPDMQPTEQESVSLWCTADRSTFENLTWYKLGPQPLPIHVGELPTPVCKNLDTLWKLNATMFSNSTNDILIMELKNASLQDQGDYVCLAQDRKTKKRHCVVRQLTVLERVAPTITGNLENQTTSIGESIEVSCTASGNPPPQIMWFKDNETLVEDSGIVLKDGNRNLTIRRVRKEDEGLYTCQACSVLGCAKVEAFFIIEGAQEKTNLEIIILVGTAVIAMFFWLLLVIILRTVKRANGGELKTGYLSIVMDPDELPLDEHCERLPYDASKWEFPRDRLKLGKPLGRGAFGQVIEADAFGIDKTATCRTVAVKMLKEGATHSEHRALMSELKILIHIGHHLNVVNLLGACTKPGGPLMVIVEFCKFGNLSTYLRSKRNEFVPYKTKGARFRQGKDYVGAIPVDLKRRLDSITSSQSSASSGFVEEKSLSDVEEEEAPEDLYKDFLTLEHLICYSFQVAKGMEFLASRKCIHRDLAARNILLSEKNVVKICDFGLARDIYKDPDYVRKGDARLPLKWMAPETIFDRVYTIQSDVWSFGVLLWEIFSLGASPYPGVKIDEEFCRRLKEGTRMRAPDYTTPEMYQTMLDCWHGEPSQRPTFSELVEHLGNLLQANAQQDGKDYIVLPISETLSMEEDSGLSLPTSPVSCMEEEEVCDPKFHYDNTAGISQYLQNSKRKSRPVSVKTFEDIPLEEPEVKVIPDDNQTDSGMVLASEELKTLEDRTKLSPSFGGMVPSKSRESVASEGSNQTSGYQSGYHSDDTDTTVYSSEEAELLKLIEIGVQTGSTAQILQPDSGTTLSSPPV
# [10] = biological target: T2, Oxytocin receptor (Homo sapiens) (UniProt P30559); assay: Inhibition of Oxytocin at 1 µM in the Eurofins-Panlabs radioligand binding assay (Eurofins_assay_260900); parameters: ligand concentration 0.8 nM, non-specific ligand with concentration 1 µM Oxytocin, incubation time 2 h, incubation temperature 25°C
# T2 sequence (whole entry): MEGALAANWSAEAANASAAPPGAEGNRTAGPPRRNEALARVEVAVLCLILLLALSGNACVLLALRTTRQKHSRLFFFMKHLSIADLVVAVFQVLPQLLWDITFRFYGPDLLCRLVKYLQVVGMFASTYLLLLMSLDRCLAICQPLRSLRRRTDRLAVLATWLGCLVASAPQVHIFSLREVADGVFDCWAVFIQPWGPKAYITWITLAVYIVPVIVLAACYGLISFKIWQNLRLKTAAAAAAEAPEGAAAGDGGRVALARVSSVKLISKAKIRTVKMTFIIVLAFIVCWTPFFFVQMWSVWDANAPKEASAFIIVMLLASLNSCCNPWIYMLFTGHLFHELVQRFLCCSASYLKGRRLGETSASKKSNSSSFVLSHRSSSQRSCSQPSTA
# [11] = biological target: Serine/threonine-protein kinase 32C (Homo sapiens) (UniProt Q86UX6); assay: Inhibition of STK32C(h) at 10.0 µM in the Eurofins Kinase panel; settings: Compound concentration 10.0 uM
# Chain of Serine/threonine-protein kinase 32C (Homo sapiens) (Q86UX6 whole entry): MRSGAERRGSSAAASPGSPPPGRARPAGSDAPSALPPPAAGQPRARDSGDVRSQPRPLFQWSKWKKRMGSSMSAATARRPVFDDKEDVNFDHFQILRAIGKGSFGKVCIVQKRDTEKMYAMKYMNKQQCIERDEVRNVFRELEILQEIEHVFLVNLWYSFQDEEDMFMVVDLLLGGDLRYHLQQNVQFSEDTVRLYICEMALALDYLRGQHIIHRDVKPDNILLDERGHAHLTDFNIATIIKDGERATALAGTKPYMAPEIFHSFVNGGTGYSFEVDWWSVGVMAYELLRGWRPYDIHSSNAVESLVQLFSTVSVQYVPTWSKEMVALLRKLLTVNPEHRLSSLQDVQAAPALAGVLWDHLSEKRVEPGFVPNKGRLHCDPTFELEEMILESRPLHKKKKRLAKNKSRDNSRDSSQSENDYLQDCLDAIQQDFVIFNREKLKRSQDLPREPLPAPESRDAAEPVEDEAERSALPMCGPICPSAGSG
# Oxytocin receptor = biological target: T3, Oxytocin receptor (Homo sapiens, UniProt P30559); assay: Radiometric OXTR binding assay (Eurofins #260900)
# T3 sequence (P30559 whole entry): T2 sequence (whole entry)
# [12] = biological target: Serine/threonine-protein kinase 25 (Homo sapiens) (UniProt O00506); assay: Inhibition of STK25(h) at 10.0 µM in the Eurofins Kinase panel; settings: Compound concentration 10.0 uM
# [13] = biological target: Serine/threonine-protein kinase Sgk2 (Homo sapiens) (UniProt Q9HBY8); assay: Inhibition of SGK2(h) at 10.0 µM in the Eurofins Kinase panel; settings: Compound concentration 10.0 uM
# [14] = biological target: Tyrosine-protein kinase TXK (Homo sapiens) (UniProt P42681); assay: Inhibition of Txk(h) at 10.0 µM in the Eurofins Kinase panel; settings: Compound concentration 10.0 uM
# [15] = biological target: Ephrin type-B receptor 1 (Homo sapiens) (UniProt P54762); assay: Inhibition of EphB1(h) at 10.0 µM in the Eurofins Kinase panel; settings: Compound concentration 10.0 uM
# [16] = biological target: Proto-oncogene tyrosine-protein kinase Src (Homo sapiens) (UniProt P12931); assay: Inhibition of cSRC(h) at 10.0 µM in the Eurofins Kinase panel; settings: Compound concentration 10.0 uM
# [17] = biological target: 5-hydroxytryptamine receptor 1D (Homo sapiens) (UniProt P28221); settings: Compound concentration 10.0 uM
# Chain of 5-hydroxytryptamine receptor 1D (Homo sapiens) (P28221 whole entry): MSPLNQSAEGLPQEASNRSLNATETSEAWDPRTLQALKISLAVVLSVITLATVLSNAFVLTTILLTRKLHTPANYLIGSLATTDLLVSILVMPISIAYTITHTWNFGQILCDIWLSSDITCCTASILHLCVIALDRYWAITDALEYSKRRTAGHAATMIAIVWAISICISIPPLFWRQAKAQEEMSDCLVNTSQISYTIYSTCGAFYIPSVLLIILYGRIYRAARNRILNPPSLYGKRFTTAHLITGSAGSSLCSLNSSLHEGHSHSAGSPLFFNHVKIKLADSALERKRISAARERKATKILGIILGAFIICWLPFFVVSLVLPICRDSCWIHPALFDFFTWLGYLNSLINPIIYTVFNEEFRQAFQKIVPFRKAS
# [18] = biological target: D(2) dopamine receptor (Homo sapiens) (UniProt P14416); settings: Compound concentration 10.0 uM
# [19] = biological target: Cannabinoid receptor 2 (Homo sapiens) (UniProt P34972); settings: Compound concentration 10.0 uM
# Mus musculus [20] = organism: Mus musculus; assay: Inhibition of Interleukin IL-1 at 10 µM in the Eurofins-Panlabs radioligand binding assay (Eurofins_assay_243520); parameters: ligand concentration 0.1 nM; settings: Compound concentration 10.0 uM
# [21] = biological target: C-C chemokine receptor type 4 (Homo sapiens) (UniProt P51679); assay: Inhibition of Chemokine CCR4 at 10 µM in the Eurofins-Panlabs radioligand binding assay (Eurofins_assay_217660); settings: Compound concentration 10.0 uM
# [22] = biological target: C-C chemokine receptor type 5 (Homo sapiens) (UniProt P51681); assay: Inhibition of Chemokine CCR5 at 10 µM in the Eurofins-Panlabs radioligand binding assay (Eurofins_assay_217720); settings: Compound concentration 10.0 uM
# Mus musculus [23] = organism: Mus musculus; assay: Inhibition of Phorbol Ester at 10 µM in the Eurofins-Panlabs radioligand binding assay (Eurofins_assay_264500); parameters: ligand concentration 3 nM; settings: Compound concentration 10.0 uM
# [24] = biological target: Receptor tyrosine-protein kinase erbB-2 (Homo sapiens) (UniProt P04626); assay: Inhibition of Protein Tyrosine Kinase, ERBB2 (HER2) at 10 µM in the Eurofins-Panlabs enzyme assay (Eurofins_assay_174020); parameters: substrate with concentration; settings: Compound concentration 10.0 uM
# [25] = biological target: Melanocortin receptor 5 (Homo sapiens) (UniProt P33032); assay: Inhibition of Melanocortin MC5 at 10 µM in the Eurofins-Panlabs radioligand binding assay (Eurofins_assay_251400); parameters: ligand concentration 0.035 nM; settings: Compound concentration 10.0 uM
# Chain of Melanocortin receptor 5 (Homo sapiens) (P33032 whole entry): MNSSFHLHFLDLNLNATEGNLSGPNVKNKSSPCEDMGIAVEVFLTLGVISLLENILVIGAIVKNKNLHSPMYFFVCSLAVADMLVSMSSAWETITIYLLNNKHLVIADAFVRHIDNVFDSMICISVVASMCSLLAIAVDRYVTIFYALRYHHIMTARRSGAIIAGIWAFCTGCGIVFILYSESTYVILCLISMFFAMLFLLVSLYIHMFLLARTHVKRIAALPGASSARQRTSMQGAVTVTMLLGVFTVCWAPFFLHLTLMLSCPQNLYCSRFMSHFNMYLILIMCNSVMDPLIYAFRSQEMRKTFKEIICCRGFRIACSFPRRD
# Caspase-1 (Homo sapiens) = Caspase-1 (Homo sapiens) (UniProt P29466); assay: Inhibition of Peptidase, CASP1 (Caspase 1) at 10 µM in the Eurofins-Panlabs enzyme assay (Eurofins_assay_163000); settings: Compound concentration 10.0 uM
# [26] = biological target: Phosphodiesterase 3 (Homo sapiens) (UniProt Q14432+Q13370); assay: Inhibition of Phosphodiesterase PDE3 at compound concentration of 10.0 uM in the Eurofins-Panlabs enzyme assay (Eurofins_assay_152000); type: protein assay; parameters: substrate with concentration 1.01 uM [3H] cAMP + cAMP, incubation time 20 min, incubation temperature 25 C; settings: Compound concentration 10.0 uM
Structure (SMILES),inhibition [1] [%],inhibition [2] [%],inhibition [3] [%],inhibition [4] [%],inhibition [5] [%],inhibition [6] [%],inhibition [9] [%],inhibition [11] [%],Ki (Oxytocin receptor),inhibition [12] [%],inhibition [15] [%],inhibition [16] [%],inhibition [18] [%],further results
O=c1n(Cc2cncn2-c2cccc(Cl)c2)nc(-c2ccc(Cl)cc2)n1C[C@H](O)C(F)(F)F,-4.66,3.23,9.81,4.87,-1,1,-2.77,-2.95,> 10 µM (not active),6.35,9.79,0.88,16,inhibition [7]: -2.17%; inhibition [8]: -7.91%; inhibition ([10]; Compound concentration 10.0 uM): 12%; inhibition [13]: -3.39%; inhibition [14]: -5.05%; inhibition [17]: 10.1%; inhibition [19]: 14%
C[C@H](O)c1nc(Cn2nc(-c3ccc(Cl)cc3)n(C[C@H](O)C(F)(F)F)c2=O)nn1-c1cccc(Cl)c1 [PECAVAPTAN],-1.36,2.01,11.4,2.9,20,-5,1.28,1.11,0.0051 µM (active),9.04,4.68,-5.76,14,inhibition (Mus musculus [20]): 15%; inhibition [21]: -2%; inhibition [22]: -3%; inhibition (Mus musculus [23]): 3%; inhibition ([10]; Compound concentration 0.0001 uM): 3%; inhibition ([10]; Compound concentration 0.001 uM): 6%; inhibition ([10]; Compound concentration 0.01 uM): 41%; inhibition ([10]; Compound concentration 0.1 uM): 84%; inhibition ([10]; Compound concentration 1.0 uM): 95%; inhibition [24]: 15%; inhibition [25]: 13%; inhibition (Caspase-1 (Homo sapiens)): 0%; inhibition [26]: 0%
